Experimental data taken from ChEMBL document CHEMBL3124888, “Inhibiting the HIV integration process: past, present, and the future” (J Med Chem, 2014).
In brackets after ≈: the same amount, converted by molar mass.

How the values were obtained:
[1] = Inhibition of HIV1 integrase/LEDGF-75 (unknown origin) interaction
[2] = tested on: Human immunodeficiency virus 1; experiment: Antiviral activity against HIV-1 by cell-based assay; format: functional, organism-based
[3] = target: T1, Human immunodeficiency virus type 1 integrase (Human immunodeficiency virus 1, UniProt Q7ZJM1); experiment: Inhibition of HIV-1 integrase strand transfer activity preincubated for 30 mins followed by 5'-end 32P-labeled linear double-stranded oligonucleotide addition
[4] = target: T1, Human immunodeficiency virus type 1 integrase; experiment: Inhibition of HIV-1 integrase 3'-end processing activity preincubated for 30 mins followed by 5'-end 32P-labeled linear double-stranded oligonucleotide addition
[5] = tested on: Human immunodeficiency virus 1; experiment: Antiviral activity against HIV-1 harboring integrase T97A/Y143R double mutant relative to wild type HIV1; format: functional
[6] = tested on: Human immunodeficiency virus 1; experiment: Antiviral activity against HIV-1 harboring integrase T97A/Y143C double mutant relative to wild type HIV1; format: functional
[7] = tested on: Human immunodeficiency virus 1; experiment: Antiviral activity against HIV-1 harboring integrase G140S/Q148K double mutant relative to wild type HIV1; format: functional
[8] = tested on: Human immunodeficiency virus 1; experiment: Antiviral activity against HIV-1 harboring integrase G140S/Q148H double mutant relative to wild type HIV1; format: functional
[9] = tested on: Human immunodeficiency virus 1; experiment: Antiviral activity against HIV-1 harboring integrase E138K/Q148K double mutant relative to wild type HIV1; format: functional
[10] = tested on: Human immunodeficiency virus 1; experiment: Antiviral activity against HIV-1 harboring integrase E138K/Q148H double mutant relative to wild type HIV1; format: functional
[11] = tested on: Human immunodeficiency virus 1; experiment: Antiviral activity against HIV-1 harboring integrase E92Q/N155H double mutant relative to wild type HIV1; format: functional
[12] = tested on: Human immunodeficiency virus 1; experiment: Antiviral activity against HIV-1 harboring integrase R263K mutant relative to wild type HIV1; format: functional
[13] = tested on: Human immunodeficiency virus 1; experiment: Antiviral activity against HIV-1 harboring integrase N155H mutant relative to wild type HIV1; format: functional
[14] = tested on: Human immunodeficiency virus 1; experiment: Antiviral activity against HIV-1 harboring integrase Q148R mutant relative to wild type HIV1; format: functional
[15] = tested on: Human immunodeficiency virus 1; experiment: Antiviral activity against HIV-1 harboring integrase Q148K mutant relative to wild type HIV1; format: functional
[16] = tested on: Human immunodeficiency virus 1; experiment: Antiviral activity against HIV-1 harboring integrase Q148H mutant relative to wild type HIV1; format: functional
[17] = tested on: Human immunodeficiency virus 1; experiment: Antiviral activity against HIV-1 harboring integrase Y143R mutant relative to wild type HIV1; format: functional
[18] = tested on: Human immunodeficiency virus 1; experiment: Antiviral activity against HIV-1 harboring integrase Y143C mutant relative to wild type HIV1; format: functional
[19] = tested on: Human immunodeficiency virus 1; experiment: Antiviral activity against HIV-1 harboring integrase G140S mutant relative to wild type HIV1; format: functional
[20] = tested on: Human immunodeficiency virus 1; experiment: Antiviral activity against HIV-1 harboring integrase E138K mutant relative to wild type HIV1; format: functional
[21] = tested on: Human immunodeficiency virus 1; experiment: Antiviral activity against HIV-1 harboring integrase G118R mutant relative to wild type HIV1; format: functional
[22] = tested on: Human immunodeficiency virus 1; experiment: Antiviral activity against HIV-1 harboring integrase T97A mutant relative to wild type HIV1; format: functional
[23] = tested on: Human immunodeficiency virus 1; experiment: Antiviral activity against HIV-1 harboring integrase E92Q mutant relative to wild type HIV1; format: functional
[24] = tested on: Human immunodeficiency virus 1; experiment: Antiviral activity against HIV-1 harboring integrase T66R mutant relative to wild type HIV1; format: functional
[25] = Selectivity index, ratio of CC50 for human MT4 cells to EC50 for HIV-1 infected in human MT4 cells; format: toxicity, cell-based; details: read-out: Ratio CC50/EC50
[26] = tested on: Human immunodeficiency virus 1; experiment: Antiviral activity against HIV-1 infected in human MT4 cells assessed as reduction of virus-induced cytopathic effect by MTT assay; format: functional, organism-based; details: Human immunodeficiency virus 1, MT4
[27] = tested on: Human immunodeficiency virus 1; experiment: Antiviral activity against HIV-1 NL4-3 infected in human HuT78 cells assessed as inhibition of viral p24 production incubated for 4 days followed by compound washout measured after 48 hrs; format: functional, organism-based; details: Human immunodeficiency virus 1, NL4-3, HuT78
[28] = Inhibition of HIV-1 His6-tagged integrase/Flag-tagged LEDGF-75 (unknown origin) interaction by AlphaScreen assay
[29] = tested on: Human immunodeficiency virus 1; experiment: Antiviral activity against HIV-1 harboring integrase E92V mutant relative to wild type HIV1; format: functional
[30] = tested on: Human immunodeficiency virus 1; experiment: Antiviral activity against HIV-1 harboring integrase G140C mutant relative to wild type HIV1; format: functional
[31] = tested on: Human immunodeficiency virus 1; experiment: Antiviral activity against HIV-1 harboring integrase T66I/R263K double mutant relative to wild type HIV1; format: functional
[32] = tested on: Human immunodeficiency virus
[33] = tested on: Human immunodeficiency virus 1; experiment: Antiviral activity against HIV-1 3B infected in human C8166 cells assessed as inhibition of viral replication by MTT assay; format: functional, organism-based; details: Human immunodeficiency virus 1, 3B
[34] = target: T1, Human immunodeficiency virus type 1 integrase; experiment: Inhibition of HIV-1 integrase binding to viral DNA by SPR-based competitive assay
[35] = Inhibition of HIV-1 recombinant His6-tagged integrase/human LEDGF-75 interaction expressed in Escherichia coli BL21(DE3) by SDS PAGE analysis
[36] = target: T1, Human immunodeficiency virus type 1 integrase; experiment: Inhibition of HIV-1 integrase 3'-end processing activity
[37] = target: T1, Human immunodeficiency virus type 1 integrase; experiment: Inhibition of HIV1 integrase strand transfer activity
[38] = Tmax in dog; format: ADME, organism-based, Canis lupus familiaris; details: in vivo
[39] = Tmax in rat; format: ADME, organism-based; details: in vivo
[40] = Oral bioavailability in rat; format: ADME, organism-based; details: in vivo
[41] = tested on: Human immunodeficiency virus 1; experiment: Antiviral activity against HIV1 3B infected in human MT4 cells assessed as inhibition of viral infection after 5 days by MTT assay in presence of human serum; format: functional; details: Human immunodeficiency virus 1, 3B, MT4, 120 h
[42] = tested on: Human immunodeficiency virus 1; experiment: Antiviral activity against HIV-1 harboring integrase T66I mutant relative to wild type HIV1; format: functional

SMILES: CCCCc1ncc(/C=C(\Cc2cccs2)C(=O)O)n1Cc1ccc(C(=O)O)cc1 [EPROSARTAN]
- IC50 [1]: 36.9 µM

SMILES: CCOc1cc(/C=C2\SC(=O)N(CC(=O)c3ccccc3)C2=O)c(Br)cc1OCc1ccc(C(=O)O)cc1
- EC50 [2]: 23.8 µg/mL

SMILES: C[C@@](Cc1ccc(O)c(O)c1)(NN)C(=O)O [CARBIDOPA]
- IC50 [1]: 6.54 µM

SMILES: O=C(c1ccccc1)c1ccc(C(c2c(O)c3ccccc3oc2=O)c2c(O)c3ccccc3oc2=O)cc1
- IC50 [3]: 18 µM
- IC50 [4]: 27 µM

SMILES: C[C@@H]1CCO[C@H]2Cn3cc(C(=O)NCc4ccc(F)cc4F)c(=O)c(O)c3C(=O)N12 [DOLUTEGRAVIR]
- fold change (FC) [5]: <2
- fold change (FC) [6]: <2
- fold change (FC) [7]: <2
- fold change (FC) [8]: <2
- fold change (FC) [9]: >100
- fold change (FC) [10]: 2
- fold change (FC) [11]: 2
- fold change (FC) [12]: 10
- fold change (FC) [13]: <2
- fold change (FC) [14]: <2
- fold change (FC) [15]: <2
- fold change (FC) [16]: <2
- fold change (FC) [17]: <2
- fold change (FC) [18]: <2
- fold change (FC) [19]: <2
- fold change (FC) [20]: 2
- fold change (FC) [21]: 2
- fold change (FC) [22]: <2
- fold change (FC) [23]: 2
- fold change (FC) [24]: <2

SMILES: Cc1ccc(-c2c(C(OC(C)(C)C)C(=O)O)cnc3sc(C)cc23)cc1 (configuration not stated)
- selectivity ratio [25]: 1390
- EC50 [26]: 0.069 µM

SMILES: C=CCN(Cc1ccccc1C(=O)NC(c1ccc(OC)cc1)c1ccc(OC)cc1)Cc1ccc2c(c1C(=O)O)OCO2
- EC50 [27]: 29 µM
- IC50 [28]: 8.1 µM

SMILES: Cc1nnc(C(=O)NC(C)(C)c2nc(C(=O)NCc3ccc(F)cc3)c(O)c(=O)n2C)o1
- fold change (FC) [29]: >5
- fold change (FC) [30]: >5
- fold change (FC) [5]: >100
- fold change (FC) [6]: >100
- fold change (FC) [7]: >100
- fold change (FC) [8]: >100
- fold change (FC) [9]: 10
- fold change (FC) [10]: <2
- fold change (FC) [11]: 50
- fold change (FC) [31]: <2
- fold change (FC) [12]: <2
- fold change (FC) [13]: 20
- fold change (FC) [14]: 20
- fold change (FC) [15]: 50
- fold change (FC) [16]: 10
- fold change (FC) [17]: 20
- fold change (FC) [18]: 2
- fold change (FC) [19]: 2
- fold change (FC) [20]: 2
- fold change (FC) [21]: 2
- fold change (FC) [22]: 2
- fold change (FC) [23]: 2
- fold change (FC) [24]: 2
- T1/2 [32]: > 438 min

SMILES: O=C(CN1CCCC1)Nc1ccc(Cc2ccc(NC(=O)CN3CCCC3)cc2)cc1
- EC50 [33]: 17.1 µg/mL (≈ 40.5 µM)
- IC50 [34]: 7.29 µM

SMILES: CCN1C[C@H](C)n2c(c(O)c3c(=O)n(Cc4ccc(F)c(Cl)c4)nc(C(=O)NC)c32)C1=O
- fold change (FC) [7]: 2
- fold change (FC) [8]: 10
- fold change (FC) [11]: 2
- fold change (FC) [12]: <2
- fold change (FC) [13]: 2
- fold change (FC) [14]: 2
- fold change (FC) [15]: <2
- fold change (FC) [16]: 2
- fold change (FC) [17]: 2
- fold change (FC) [18]: 2
- fold change (FC) [19]: 2
- fold change (FC) [20]: 2
- fold change (FC) [21]: 2
- fold change (FC) [23]: <2
- fold change (FC) [24]: <2
- T1/2 [32]: 1920 min

SMILES: CCCC(C(=O)O)c1c(C)nc2ccc(Cl)cc2c1-c1ccccc1 (configuration not stated)
- IC50 [35]: 1.37 µM
- EC50 [2]: 2.35 µM

SMILES: CC(C)c1c(C(=O)Nc2ccccc2)c(-c2ccccc2)c(-c2ccc(F)cc2)n1CC[C@@H](O)C[C@@H](O)CC(=O)O [ATORVASTATIN]
- IC50 [1]: 8.9 µM

SMILES: COC(=O)[C@H](COC(=O)/C=C/c1ccc(OC(C)=O)c(OC(C)=O)c1)NC(=O)/C=C/c1ccc(OC(C)=O)c(OC(C)=O)c1
- IC50 [36]: 3 µM
- IC50 [37]: 3 µM

SMILES: COc1cc2c(cc1Cc1cccc(Cl)c1F)c(=O)c(C(=O)O)cn2[C@H](CO)C(C)C
- Tmax [38]: 30 min
- Tmax [39]: 30 min
- bioavailability [40]: 30%
- EC90 [41]: 0.0017 µM
- fold change (FC) [42]: >10
- fold change (FC) [5]: <2
- fold change (FC) [6]: <2
- fold change (FC) [7]: >100
- fold change (FC) [8]: >100
- fold change (FC) [9]: >100
- fold change (FC) [10]: 10
- fold change (FC) [11]: >100
- fold change (FC) [31]: >100
- fold change (FC) [12]: 2
- fold change (FC) [13]: 20
- fold change (FC) [14]: 50
- fold change (FC) [15]: 50
- fold change (FC) [16]: 2
- fold change (FC) [17]: <2
- fold change (FC) [18]: <2
- fold change (FC) [19]: 2
- fold change (FC) [20]: 2
- fold change (FC) [21]: <2
- fold change (FC) [22]: 2
- fold change (FC) [23]: 20
- fold change (FC) [24]: 50
